Experiment [1] has as its system ethanol-induced gastric lesions. The experiment can be described thus: Ethanol-induced gastric lesions (80% aqueous ethanol challenge), part A. In kind it is in vivo, rat. As to conditions: rats; for gastric ulceration: oral 0.3, 1, 3, or 10 mg/kg, 30 min before 1 ml 80% ethanol, examined 1 hr later. On the procedure: A. Four groups of rats, standard laboratory animals for determining cytoprotective effects of pharmacological agents, are fasted for 24 hr and then treated orally with (a) […], (b) cimetidine, (c) a cytoprotective prostaglandin, or (d) vehicle (10% Emulphor, 10% EtOH, 80% water). Thirty min later, the rats are challenged with an oral 1 ml dose of 80% aqueous ethanol, a standard agent for inducing gastric cytodestruction. One hr later, the rats are sacrificed (carbon dioxide asphyxiation) and the gastric tissues examined.

In experiment [2] the test system is Cytoprotection Against Acidified Aspirin. To be noted: Robert, Gastroenterology 76:1227 (1979); cited from earlier work.
Experiment [3] relates to Indomethacin-Induced Small Bowel Ulceration. To be noted: rat; Kauffman et al. (1979), title; cited from earlier work.
In another experiment the test system is gastric secretion. To be noted: in vivo; cited from earlier work.
Experiment [4] relates to gastric acid secretion. The experiment can be described thus: Inhibition of pentagastrin-stimulated gastric acid secretion in conscious gastric fistula dogs. The format is in vivo. As to conditions: Canis lupus familiaris, dog, intraduodenal, read-out: Effect % inhibition (peak inhibitory effect on gastric acid secretion). On the procedure: To determine the gastric acid secretion inhibitory properties, experiments have been performed on conscious dogs provided with gastric fistulas of conventional type and duodenal fistules, the latter ones used for direct introduodenal administration of the test compounds. After 18 hours starvation and deprivation of water the dogs were given subcutaneous infusion of pentagastrin (1-4 nmol/kg, h) lasting for 6-7 hours. Gastric juice was collected in consecutive 30 minutes samples. An aliquot of each sample was titrated with 0.1 N NaOH to […] for titrable acid concentration using an automatic titrator and pH-meter (Radiometer, Copenhagen, Denmark). Acid output was calculated as mmol H^+ /60 minutes. The percent inhibition compared to control experiments was calculated for each compound and the peak inhibitory effect is given in Table 2 below. The test compounds, suspended in 0.5% Methocel® (methyl cellulose), were given intraduodenally in doses from 4-20 μmol/kg when the secretory response to pentagastrin has reached a steady level. In the test prior known compounds were compared with the compounds of the present invention as will be evident from the Table 2 below. The following gastric acid inhibiting effect data were obtained for a number of compounds tested according to the method described.

The subject of experiment [5] is gastric acid secretion. Kind of experiment: Gastric acid secretion inhibition in the rat. In kind it is in vivo.
Experiment [6] in a line: Gastric volume / gastric emptying experiment, part B. The format is in vivo, rat. To be noted: rats, oral 0.01, 0.1, or 1.0 mg/kg; 5, 15, and 30 min after ingestion. On the procedure: B. A further experiment is undertaken to rule out gastric emptying as a factor in the cytoprotection observed in part A above. In this experiment timoprazole was given orally at 0.01, 0.1, or 1.0 mg/kg to groups of rats and a further group of rats is treated with vehicle (same as in part A) only. As above, the rats are faster for 24 hr prior to treatment. Groups of rats are then sacrificed 5, 15, and 30 min after timoprazole ingestion. […] Accordingly, flluid accumulation in the stomach is not a factor in the cytoprotection observed in part A.

Experiment [7] deals with ethanol-induced gastric ulceration. The experiment can be described thus: Ethanol-induced gastric ulceration, less irritant vehicle, lowest dose protecting 50% of animals, part C. The format is in vivo, rat. To be noted: rats. From the text:
C. […] The rats are sacrificed one hr after timoprazole administration and the extent of gastric ulceration determined.

For experiment [8], the system named is ethanol-induced gastric lesions. Kind of experiment: Ethanol challenge with or without indomethacin pretreatment, part D. As to conditions: timoprazole 5 mg/kg orally, indomethacin 1 hr prior. The format is in vivo, rat. On the procedure: D. Because mild gastric irritants, e.g., 20% ethanol, are known to stimulate endogenous prostaglandin production, with consequent cytoprotection effects being observed, a further experiment is undertaken to determine whether timoprazole acts as a mild irritant (i.e., by stimulating endogenous cytoprotective prostaglandin production), or exerts a directly cytoprotective effect. In this experiment, rats are treated with timoprazole (5 mg/kg orally), but in each group of rats half the animals are pretreated with a NOSAC, indomethacin, 1 hr prior to treatment with timoprazole. One hr after ethanol challenge, the rats are sacrificed. […] Accordingly, the cytoprotective effects of timoprazole are not mediated by endogenous prostaglandin production.

The subject of experiment [9] is thermally induced gastric ulceration. Kind of experiment: Thermally induced gastric ulceration (boiling water). To be noted: for ulcer incidence score (ulcers/stomach): rats, control score 8.0. The format is in vivo, rat.

On to `CN/C(=N/CCSCc1nc[nH]c1C)NC#N` [cimetidine, N-cyano-N'-methyl-N"[2-[[(5-methyl-1H-imidazol-4-yl)methyl]thio]ethyl]gunanidine], for which the gastric ulceration entry in experiment [1] was “all demonstrate gastric ulcers”. Also, the number of ulcers entry in [1] (oral 0.3, 1.0, 3.0 or 10.0 mg/kg, 30 min before 80% ethanol) is reported as “slight decrease in the number of ulcers”. The cytoprotective effects entry in [2] is “devoid of appreciable cytoprotective effects”. Further, the “inhibition of indomethacin-induced small bowel ulceration” value in experiment [3] is on record as “Does Not Inhibit”. In addition, the “inhibition of gastric secretion” value with gastric secretion is “highly potent inhibitor of gastric secretion”.
Take `COC(=O)c1cc2nc([S+]([O-])Cc3cc(OC)c(C)cn3)[nH]c2cc1C` (stereo not shown) [compound 18, 2-[2-(4-methoxy-5-methyl)-pyridylmethylsulfinyl]-(5-carbomethoxy-6-methyl)-benzimidazole]: in the experiment with gastric acid secretion [4] (dose 0.5 μol/kg), the inhibition in vivo at 0.5 µmol/kg was 90%.
On to `[O-][S+](Cc1ccccn1)c1nc2ccccc2[nH]1` (stereo not shown) [timoprazole, 2-[2-pyridylmethylsulfinyl]benzimidazole], for which the “gastric ulceration (dose 0.3 mg/kg)” value in experiment [1] (oral 0.3 mg/kg, 30 min before 80% ethanol) is given as “traces of mild ulceration”. In addition, in experiment [1], the gastric ulceration entry was “no gastric ulceration”. The ED50 in the experiment with gastric acid secretion [5] (in the rat) is ~10 mg/kg; in experiment [7] (Rattus norvegicus, read-out: ED50 (lowest dose at which 50% of the animals treated exhibit no gastric ulceration), oral, vehicle 5% EtOH, 1% Emulphor in water), < 1 mg/kg. For the same compound, the “ED50 for gastric acid secretion inhibition relative to lowest cytoprotective dose observed” value in the experiment on gastric acid secretion [5] (rat, ratio to lowest cytoprotective dose of part A) is on record as “at least ten”. In experiment [6], the “changes in gastric volume versus vehicle” value is recorded as “No significant changes in gastric volume”. The “reduction in ulceration, oral administration” value in [7] (oral 1, 3, or 10 mg/kg, 30 min before ethanol challenge) is listed as “significant reduction in ulceration at all dosages tested”. In addition, the “reduction of number of ulcers, subcutaneous administration” value in [7] (subcutaneous 1, 3, or 10 mg/kg, 30 min before ethanol challenge) is recorded as “did not significantly reduce the number of ulcers”. Further, in experiment [8], the “difference between rats receiving indomethacin and those not receiving it” value is “no significant difference”. The “ulcer incidence score (ulcers/stomach)” value in [9] (0.3 mg/kg) was 7.6; in experiment [9] (1.0 mg/kg), 5.0; in experiment [9] (3.0 mg/kg), 3.9; in experiment [9] (10.0 mg/kg) it was 4.0. The “incidence and severity of ulcers as compared to vehicle” value in experiment [9] (rats, 0.3, 1.0, 3.0, and 10.0 mg/kg) was “uniform reduction in the incidence and severity of ulcers”. Further, the inhibition in vivo at 4 µmol/kg in the experiment with gastric acid secretion [4] came to 50%.
Regarding `Cc1cc(C)c2[nH]c([S+]([O-])Cc3ccccn3)nc2c1` (stereo not shown) [x (4-CH3,6-CH3, H, H, H, H), 2-[2-pyridylmethylsulfinyl]-(4,6-dimethyl)benzimidazole], the inhibition in vivo at 4 µmol/kg in the experiment with gastric acid secretion [4] turned out to be 30%.

Values taken from patent US4359465A, “Methods for treating gastrointestinal inflammation” (The Upjohn Company, priority 1980, dated 1982).
